In PubChem BioAssay (NCI):
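GI50 marks 50% less growth. TGI is the concentration that stops growth completely.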

How the values were obtained:
Assay in all cases: DTP human tumour cell line panel, 384-well format
786-0 renal = test system: 786-0 renal
A498 renal = test system: A498 renal
A549 NSCLC = test system: A549 NSCLC
ACHN renal = test system: ACHN renal
BT-549 breast = test system: BT-549 breast
CAKI-1 renal = test system: CAKI-1 renal
CCRF-CEM leukemia = test system: CCRF-CEM leukemia
COLO 205 colon = test system: COLO 205 colon
DU-145 prostate = test system: DU-145 prostate
EKVX NSCLC = test system: EKVX NSCLC
HCC-2998 colon = test system: HCC-2998 colon
HCT-116 colon = test system: HCT-116 colon
HCT-15 colon = test system: HCT-15 colon
HL-60(TB) leukemia = test system: HL-60(TB) leukemia
HOP-62 NSCLC = test system: HOP-62 NSCLC
HOP-92 NSCLC = test system: HOP-92 NSCLC
HS 578T breast = test system: HS 578T breast
HT29 colon = test system: HT29 colon
IGROV1 ovarian = test system: IGROV1 ovarian
K-562 leukemia = test system: K-562 leukemia
KM12 colon = test system: KM12 colon
LOX IMVI melanoma = test system: LOX IMVI melanoma
M14 melanoma = test system: M14 melanoma
MALME-3M melanoma = test system: MALME-3M melanoma
MCF7 breast = test system: MCF7 breast
MDA-MB-231 breast = test system: MDA-MB-231 breast
MDA-MB-435 melanoma = test system: MDA-MB-435 melanoma
MDA-MB-468 breast = test system: MDA-MB-468 breast
MOLT-4 leukemia = test system: MOLT-4 leukemia
NCI-H226 lung = test system: NCI-H226 lung
NCI-H23 lung = test system: NCI-H23 lung
NCI-H322M lung = test system: NCI-H322M lung
NCI-H460 NSCLC = test system: NCI-H460 NSCLC
NCI-H522 lung = test system: NCI-H522 lung
NCI/ADR-RES ovarian = test system: NCI/ADR-RES ovarian
OVCAR-3 ovarian = test system: OVCAR-3 ovarian
OVCAR-4 ovarian = test system: OVCAR-4 ovarian
OVCAR-5 ovarian = test system: OVCAR-5 ovarian
OVCAR-8 ovarian = test system: OVCAR-8 ovarian
PC-3 prostate = test system: PC-3 prostate
RPMI-8226 leukemia = test system: RPMI-8226 leukemia
RXF 393 renal = test system: RXF 393 renal
SF-268 CNS = test system: SF-268 CNS
SF-295 CNS = test system: SF-295 CNS
SF-539 CNS = test system: SF-539 CNS
SK-MEL-2 melanoma = test system: SK-MEL-2 melanoma
SK-MEL-28 melanoma = test system: SK-MEL-28 melanoma
SK-MEL-5 melanoma = test system: SK-MEL-5 melanoma
SK-OV-3 ovarian = test system: SK-OV-3 ovarian
SN12C renal = test system: SN12C renal
SNB-19 CNS = test system: SNB-19 CNS
SNB-75 CNS = test system: SNB-75 CNS
SW-620 colon = test system: SW-620 colon
T-47D breast = test system: T-47D breast
TK-10 renal = test system: TK-10 renal
U251 glioblastoma = test system: U251 glioblastoma
UACC-257 melanoma = test system: UACC-257 melanoma
UACC-62 melanoma = test system: UACC-62 melanoma
UO-31 renal = test system: UO-31 renal

## Nc1ncnc2c1c(-c1cccc(OCc3ccccc3)c1)cn2C1CC(CN2CCCC2)C1 (stereo not drawn)
786-0 renal
  GI50: 1690 nM
  TGI: 3080 nM
A498 renal
  GI50: 1730 nM
  TGI: 3300 nM
A549 NSCLC
  GI50: 1670 nM
  TGI: 3410 nM
ACHN renal
  GI50: 2040 nM
  TGI: 4450 nM
BT-549 breast
  GI50: 1550 nM
  TGI: 2980 nM
CAKI-1 renal
  GI50: 1660 nM
  TGI: 3220 nM
CCRF-CEM leukemia
  GI50: 1850 nM
  TGI: 3260 nM
COLO 205 colon
  GI50: 442 nM
  TGI: 1640 nM
DU-145 prostate
  GI50: 3020 nM
  TGI: 11900 nM
EKVX NSCLC
  GI50: 1360 nM
  TGI: 3740 nM
HCC-2998 colon
  GI50: 1290 nM
  TGI: 2630 nM
HCT-116 colon
  GI50: 1560 nM
  TGI: 2990 nM
HCT-15 colon
  GI50: 1570 nM
  TGI: 3280 nM
HL-60(TB) leukemia
  GI50: 324 nM
  TGI: 1050 nM
HOP-62 NSCLC
  GI50: 1870 nM
  TGI: 3490 nM
HOP-92 NSCLC
  GI50: 1460 nM
  TGI: 2820 nM
HS 578T breast
  GI50: 1580 nM
  TGI: 2950 nM
HT29 colon
  GI50: 769 nM
  TGI: 2060 nM
IGROV1 ovarian
  GI50: 3460 nM
  TGI: 12300 nM
K-562 leukemia
  GI50: 1560 nM
  TGI: 2950 nM
KM12 colon
  GI50: 1910 nM
  TGI: 4160 nM
LOX IMVI melanoma
  GI50: 1670 nM
  TGI: 3050 nM
M14 melanoma
  GI50: 1400 nM
  TGI: 2720 nM
MALME-3M melanoma
  GI50: 1250 nM
  TGI: 2520 nM
MCF7 breast
  GI50: 353 nM
  TGI: 1690 nM
MDA-MB-231 breast
  GI50: 2050 nM
  TGI: 4560 nM
MDA-MB-435 melanoma
  GI50: 1490 nM
  TGI: 2840 nM
MDA-MB-468 breast
  GI50: 1520 nM
  TGI: 2970 nM
MOLT-4 leukemia
  GI50: 1780 nM
  TGI: 3170 nM
NCI-H226 lung
  GI50: 1470 nM
  TGI: 4310 nM
NCI-H23 lung
  GI50: 1380 nM
  TGI: 3560 nM
NCI-H322M lung
  GI50: 1860 nM
  TGI: 4940 nM
NCI-H460 NSCLC
  GI50: 1320 nM
  TGI: 2750 nM
NCI-H522 lung
  GI50: 1900 nM
  TGI: 3500 nM
NCI/ADR-RES ovarian
  GI50: 2290 nM
  TGI: 6640 nM
OVCAR-3 ovarian
  GI50: 1740 nM
  TGI: 3430 nM
OVCAR-4 ovarian
  GI50: 2030 nM
  TGI: 5180 nM
OVCAR-5 ovarian
  GI50: 1520 nM
  TGI: 3810 nM
OVCAR-8 ovarian
  GI50: 1790 nM
  TGI: 3510 nM
PC-3 prostate
  GI50: 1780 nM
  TGI: 3510 nM
RPMI-8226 leukemia
  GI50: 1720 nM
  TGI: 3110 nM
RXF 393 renal
  GI50: 1480 nM
  TGI: 2830 nM
SF-268 CNS
  GI50: 1760 nM
  TGI: 3190 nM
SF-295 CNS
  GI50: 1760 nM
  TGI: 3220 nM
SF-539 CNS
  GI50: 1800 nM
  TGI: 3210 nM
SK-MEL-2 melanoma
  GI50: 1060 nM
  TGI: 2260 nM
SK-MEL-28 melanoma
  GI50: 1570 nM
  TGI: 2920 nM
SK-MEL-5 melanoma
  GI50: 1200 nM
  TGI: 2450 nM
SK-OV-3 ovarian
  GI50: 1740 nM
  TGI: 3290 nM
SN12C renal
  GI50: 1770 nM
  TGI: 3420 nM
SNB-19 CNS
  GI50: 3000 nM
  TGI: 8690 nM
SNB-75 CNS
  GI50: 1900 nM
  TGI: 3340 nM
SW-620 colon
  GI50: 1410 nM
  TGI: 2960 nM
T-47D breast
  GI50: 1540 nM
  TGI: 3040 nM
TK-10 renal
  GI50: 1600 nM
  TGI: 3170 nM
U251 glioblastoma
  GI50: 1890 nM
  TGI: 3380 nM
UACC-257 melanoma
  GI50: 1480 nM
  TGI: 2810 nM
UACC-62 melanoma
  GI50: 1690 nM
  TGI: 3070 nM
UO-31 renal
  GI50: 1520 nM
  TGI: 2880 nM
